Assay results reported in US7459441B2, “Remedies for dry eye and diseases associated with dry eye” (Senju Pharmaceutical Co., Ltd., priority 2001, dated 2008).
Where no end group is shown, it is not given here.

Assays:
[1] = Trypsin digestion test in the presence of chondroitin sulfate; assay type: in vitro ADME; conditions: 0.5 mU trypsin, pH 7.5, 37° C., 180 minutes, read-out: remaining rate (undegraded peptide by HPLC)
Description: The effect of highly basified Peptide 5 on digestion with trypsin was studied in the presence of chondroitin sulfate.
To 100 μL of a solution of VIP and Peptide 5 (1 mg/mL) was added 400 μL of a solution of chondroitin sulfate (pH 7.5, 100 μg/mL) in a 0.2 M Tris-HCl buffer (pH 7.5). To 100 μL of this solution was added 0.5 mU of trypsin and the mixture was incubated at 37° C. for 180 minutes. Then, an amount of an undegraded peptide was measured by HPLC.

[2] = Digestion test with bronchoalveolar lavage fluid (BALF); assay type: in vitro ADME; conditions: rat BALF, 90 minutes; for remaining at 1.5 h, 0.1 mg/mL: male, SD, bronchoalveolar lavage fluid (BALF), pH 7.4, 37° C., read-out: remaining rate (undegraded peptide by HPLC)
Description: The effect of highly basified Peptide 5 on digestion with bronchoalveolar lavage fluid was studied.
VIP and Peptide 5 were dissolved (1.1 mg/mL) in a 0.2% Tris-HCl buffer (pH 7.4), and bronchoalveolar lavage fluid (BALF) was added thereto. BALF was obtained by pouring 5 mL of a physiological saline into a trachea of a 8 to 9 week old normal SD male rat (about 350 g) under anesthesia, and recovering the saline, and repeating this procedure totally three times. To 0.5 mL of BALF was added 0.05 mL of a sample solution and the mixture was reacted at 37° C. for 90 minutes, and thereafter an amount of undegraded peptide was measured by HPLC.

isolated lacrimal gland = assay: Promotion of protein secretion from isolated lacrimal gland; design: species or system rabbit; conditions: 10^-4 M, treating time 0 to 40 minutes, n=5, Dunnett's test (FIG. 1)
Description: An isolated lacimal gland of a rabbit was treated with VIP, or Peptide 5 or 15, and the pharmacological effect of these peptides on increase in an amount of secreted protein was studied.
a) Purified water was added to sodium chloride (137.92 g), potassium chloride (7.01 g), calcium chloride-dihydrate (3.53 g) and magnesium chloride.hexahydrate (1.2 g) and the mixture was made up to a total volume of 1000 mL (Solution 1). Separately, purified water was added to potassium dihydrogen phosphate (8.17 g) and the mixture was made up to a total volume of 500 mL (Solution 2). Solution 1 (50 mL) and Solution 2 (10 mL) were added to 900 mL of purified water, 2.07 g of glucose and 2.1 g of […] were dissolved therein, a total amount was adjusted to 1000 mL (pH about 7.4) to obtain an incubation medium. The incubation medium was bubbled with mixed gas containing 95% oxygen and 5% carbon dioxide.
b) VIP, Peptide 5 or Peptide 15 was dissolved in the incubation medium at a concentration of 10^−4 M to obtain a test solution. […]
a) The piece specimen in the steady state was used, the incubation medium was exchanged with 0.5 mL of a fresh incubation medium, followed by incubation at 37° C. for 20 minutes. This incubation medium was collected, a protein staining reagent (DC Protein assay reagent, Bio Rad) was added thereto, and an amount of protein was measured and expressed as an amount of secreted protein per mg of wet weight. […]
b) The incubation medium of the piece specimen after incubation in a) was exchanged with 0.5 mL of a test solution, and the solution was exchanged and collected at 20 minutes intervals totally five times. A protein staining reagent was added to the collected solution, and an amount of protein was measured. For a piece specimen in a control group, the incubation medium was exchanged similarly, and an amount of protein was measured.

[3] = test system: eyes of a Japanese white rabbit; assay: Lacrimal secretion promotion activity of eye drops (2), Schirmer test with time; assay type: in vivo; conditions: for AUC0-120 min, accumulated value of increment of amount of lacrimal secretion after application / increment of amount of lacrimal secretion vs control group / AUC value compared with control group (significance): 0.1 w/v %; for AUC0-120 min, accumulated value of increment of amount of lacrimal secretion after application: 50 μL once to eyes, n = 8, average ± standard error; for increment of amount of lacrimal secretion vs control group: 10 minutes after the administration, n=8 (FIG. 2); for AUC value compared with control group (significance): 120 minutes after the administration, Dunnett-type multiple comparison test
Description: In the same manner as that of Test Example 4, Peptide 5 was applied, and an amount of lacrimal secretion was measured. In this test, an amount of lacrimal secretion was measured with time, and the effect was compared with that of VIP.
Preparation of a solution was performed in the same manner as that of Test Example 4, and VIP and Peptide 5 were dissolved in the vehicle at a concentration of 0.1 w/v %, to prepare a test solution.
[…] Measurement of an amount of lacrimal secretion was performed in the same manner as that of Test Example 4.

[4] = test system: eyes of a Japanese white rabbit; assay: Lacrimal secretion promotion activity of eye drops (1), Schirmer test; assay type: in vivo; conditions: for Amount of lacrimal secretion (Schirmer's value), After administration: 10 minutes after single 50 μL application; for Amount of lacrimal secretion (Schirmer's value), After administration / amount of lacrimal secretion after vs before application (paired t test): Peptide 5 0.1 w/v %, Peptide 15 2.0 w/v %; for Amount of lacrimal secretion (Schirmer's value), After administration / Amount of lacrimal secretion (Schirmer's value), Before administration: n = 6, mean ± standard error; for Amount of lacrimal secretion (Schirmer's value), Before administration: baseline before single 50 μL application to eyes; for amount of lacrimal secretion after vs before application (paired t test): single application to eyes
Description: Peptide 5 or 15 was applied to eyes of a rabbit, and an amount of secreted tears was measured, whereby, the pharmacological effect of these peptides on increase in an amount of lacrimal secretion was studied.
Purified water was added to sodium chloride (0.9 g) and sodium dihydrogen phosphate.dihydrate (0.1 g) to make up to a total volume of 100 mL. Further, an appropriate amount of aqueous sodium hydroxide solution was added so as to adjust pH to 7.0 to obtain a vehicle. Peptide 5 was dissolved in the vehicle at a concentration of 0.1 w/v %, and Peptide 15 was dissolved in the vehicle at a concentration of 2.0 w/v %, to prepare test solutions.
Measurement of an amount of tears was performed by a Schirmer test. To eyes of a Japanese white rabbit, 50 μL of a test solution was applied once, and amounts of lacrimal secretion before and 10 minutes after the application to eyes were measured. Five minutes before measurement of an amount of tears, 10 μL of 0.4 w/v % oxybuprocaine hydrochloride (Anelocal™ eye drops, Senju Pharmaceutical Co., Ltd.) was dropped to topically anesthetize. After tears in palpebra interior conjunctival sac were wiped out using a filter paper, and an amount of lacrimal secretion for 1 minute was measured using a Schirmer test paper (Showa Yakuhin Kako Co., Ltd.).

Compound | remaining at 3 h, 0.2 mg/mL [1] [%] | remaining at 1.5 h, 0.1 mg/mL [2] [%] | rate of protein secretion from isolated lacrimal gland vs control group (isolated lacrimal gland) | AUC0-120 min, accumulated value of increment of amount of lacrimal secretion after application [3] | increment of amount of lacrimal secretion vs control group [3] | AUC value compared with control group (significance) [3] | remaining rate as compared with VIP [2] | Amount of lacrimal secretion (Schirmer's value), After administration [4] [mm/min] | Amount of lacrimal secretion (Schirmer's value), Before administration [4] [mm/min] | amount of lacrimal secretion after vs before application (paired t test) [4] | duration of lacrimal secretion promoting activity compared with VIP ([3]; application to eyes)
CC[C@H](C)[C@H](NC(=O)[C@H](CO)NC(=O)[C@H](CC(N)=O)NC(=O)[C@H](CC(C)C)NC(=O)[C@H](Cc1ccc(O)cc1)NC(=O)[C@H](CCCCN)NC(=O)[C@H](CCCCN)NC(=O)[C@@H](NC(=O)[C@H](C)NC(=O)[C@H](CCSC)NC(=O)[C@H](CCC(N)=O)NC(=O)[C@H](CCCCN)NC(=O)[C@H](CCCNC(=N)N)NC(=O)[C@H](CC(C)C)NC(=O)[C@H](CCCNC(=N)N)NC(=O)[C@@H](NC(=O)[C@H](Cc1ccc(O)cc1)NC(=O)[C@H](CC(N)=O)NC(=O)[C@H](CC(=O)O)NC(=O)[C@@H](NC(=O)[C@H](Cc1ccccc1)NC(=O)[C@@H](NC(=O)[C@H](C)NC(=O)[C@H](CC(=O)O)NC(=O)[C@H](CO)NC(=O)[C@@H](N)Cc1c[nH]cn1)C(C)C)[C@@H](C)O)[C@@H](C)O)C(C)C)C(=O)N[C@@H](CC(C)C)C(=O)N[C@@H](CC(N)=O)C(N)=O [VIP, Vasoactive Intestinal Peptide, reference compound] | 75 | 45.5 | significantly increased | 215.0 ± 98.2 ΔSchirmer's value × min. | significantly increased | a significant difference is not recognized | – | – | – | – | –
HSDAVFTDNYTRLRRQLAVRRYLNSILNGRR-NH2 [Peptide 5] | 89 | 80 | significantly increased | 359.2 ± 85.0 ΔSchirmer's value × min. | significantly increased | significantly higher value | about 1.8 fold | 8.92 ± 0.45 | 2.00 ± 0.62 | significantly increased | longer-lasting
Peptide 15: VIP derivative of formula (I): X1 Lys, X2 Leu, X3 Lys, X4 Lys, X5 chemical bond, X6 -NH2 (HSDAVFTDNYTRLRKQLAVKKYL-NH2) | – | – | significantly increased | – | – | – | – | 7.75 ± 2.16 | 3.25 ± 1.20 | tendency of increase | –
